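Grown in 96-well plates, cells were treated for 48 hours with each compound at five concentrations. Insufficient inhibition: endpoint recorded as highest concentration tested. Here, GI50 denotes the concentration required for 50% inhibition of growth. TGI denotes the concentration required for complete inhibition of growth.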

Common to all, as to experiment: NCI-60 cell line screen, 48 h
Assay [1] relates to SNB-19 CNS.
For assay [2], the system named is A549 NSCLC.
Assay [3] relates to SK-OV-3 ovarian.
Assay [4] relates to NCI-H460 lung.
In assay [5] the test system is SNB-75 CNS.
The test system of assay [6] is HOP-92 NSCLC.
In assay [7] the test system is SF-295 CNS.
The subject of assay [8] is OVCAR-3 ovarian.
Assay [9] concerns SW-620 colon.
Assay [10] has as its system SN12C renal.

As for `Cc1cc2c(C(C)C)c(O)c(O)c(C=NCCO)c2c(O)c1-c1c(C)cc2c(C(C)C)c(O)c(O)c(C=NCCO)c2c1O`, the TGI turned out to be 25.1 µM in assay [1]; 2.98 µM in assay [2]; 12.3 µM in assay [3]; 2.41 µM in assay [4]; 9.13 µM in [5]; 5.07 µM in assay [6]. For the same compound, the TGI in assay [7] was 5.51 µM; in assay [8] it was 5.79 µM; in assay [9], 16.7 µM; in assay [10] it was 9.63 µM.

As for `CCOc1ccc(/C(C=O)=C(\Cl)c2ccc(OC)c(OC)c2)cc1`, the TGI in [1], in assay [3], in assay [4], in assay [6], in [7] and in assay [8] was greater than 100 µM throughout. For the same compound, the TGI in assay [9] and in assay [10] was greater than 100 µM throughout.

Turning to `CC(=O)O[C@H]1C=CC(=O)C(C)CC1C` (stereo partly specified), the TGI in assay [1], in [2], in [3], in assay [4], in assay [5] and in [6] was greater than 100 µM each time. Also, the TGI in assay [7], in [8], in assay [9] and in assay [10] was greater than 100 µM throughout.

Take `CC(=O)OCC1=C(C(=O)O)C(c2ccc3c(c2)OCO3)c2cc3c(cc2O1)OCO3` (stereo unspecified): the TGI in assay [1], in assay [2], in assay [3], in assay [4], in assay [5] and in [6] was greater than 100 µM in each case. In addition, the TGI in assay [7], in [8], in [9] and in assay [10] was greater than 100 µM in each case.

On to `CCCC(N)C(=O)c1ccccc1` (stereo unspecified), for which the TGI in [1], in assay [2], in assay [3], in assay [4], in assay [5] and in assay [6] was greater than 100 µM throughout. Also, the TGI in assay [7], in [8], in [9] and in assay [10] was greater than 100 µM throughout.

`O=C(Nc1ccc(Sc2ccc(N=Nc3c(O)c(S(=O)(=O)O)cc4cc(S(=O)(=O)O)ccc34)cc2)cc1)c1ccc(N=Nc2c(O)ccc3c(S(=O)(=O)O)cc(S(=O)(=O)O)cc23)cc1`: the TGI in assay [1], in assay [2], in [3], in assay [4], in assay [5] and in [6] was greater than 100 µM each time. In addition, the TGI in [7] is greater than 100 µM; in [8] it was 92.5 µM; in assay [9] it was greater than 100 µM; in assay [10], greater than 100 µM.

Take `COc1ccc(-c2nn(-c3cccc(NC(=O)Nc4ccccc4)c3)cc2-c2ccncc2)cc1Cl`: the GI50 in assay [1] was 2830 nM; in assay [2], 2110 nM; in assay [3] it was 3400 nM; in assay [4], 2060 nM; in assay [5], 1330 nM; in [7] it was 2010 nM. The GI50 is 2510 nM in assay [9] and 2390 nM in assay [10]. Also, the TGI in assay [1] is greater than 100 µM; in assay [2], 4.99 µM; in [3], 30.8 µM; in [4], 4.48 µM; in assay [5], 2.79 µM; in [7], 6.32 µM. For the same compound, the figures for the TGI in [9] and in assay [10] were 7.36 µM and 7.39 µM, respectively.

As for `COc1c2c(cc3c1OCO3)C13C=CC(OC)CC1N(CC3)C2` (stereo unspecified), the TGI in [1], in assay [2], in assay [3], in assay [5], in [6] and in assay [7] was greater than 100 µM in each case. Further, the TGI in [8], in assay [9] and in assay [10] was greater than 100 µM in each case.

Take `Clc1ccc(CNc2nc(Cl)c3[nH]cnc3n2)cc1Cl`: the TGI in assay [1] is greater than 100 µM; in [2], greater than 100 µM; in [3], 85.5 µM; in [4], 73.3 µM; in assay [5] it was greater than 100 µM; in assay [7] it was greater than 100 µM. Also, the TGI in assay [8] and in [10] was greater than 100 µM throughout.

Consider `C=C1C(=O)O[C@@H]2[C@H]1CCC(C)=C1C=CC(=O)[C@]12C`, for which the TGI in assay [1] was 71.8 µM; in [2], 73 µM; in [3], 61.4 µM; in assay [4] it was 35.1 µM; in [5] it was 34.4 µM; in [6], 18.5 µM. For the same compound, the TGI is 32.7 µM in [7], 31 µM in assay [8], 18.4 µM in assay [9] and 29.3 µM in assay [10].

Regarding `CCC(=O)NC(Nc1cccc(F)c1)(C(F)(F)F)C(F)(F)F`, the TGI in assay [1], in assay [2], in assay [3], in assay [4], in [5] and in [6] was greater than 100 µM in each case. Besides, the TGI in assay [7], in assay [8], in [9] and in [10] was greater than 100 µM throughout.

As for `CC(=O)C=NCC(=O)O`, the TGI in assay [1], in assay [2], in assay [3], in assay [4], in [5] and in assay [6] was greater than 100 µM in each case. Moreover, the TGI in assay [7], in [8], in [9] and in assay [10] was greater than 100 µM each time.

In the case of `NC1(C(=O)O)CCc2ccc(N(CCCl)CCCl)cc2C1` (stereo unspecified), the TGI in [1], in assay [2], in assay [3], in assay [4], in assay [5] and in [6] was greater than 100 µM each time. Moreover, the TGI in assay [7], in assay [8], in [9] and in assay [10] was greater than 100 µM in each case.

Turning to `c1ccc(N=c2nc(N3CCOCC3)ss2)cc1`, the TGI in [1] was greater than 100 µM; in assay [2] it was greater than 100 µM; in assay [3], greater than 100 µM; in assay [4], 34.7 µM; in assay [5], 39 µM; in assay [6], 36.3 µM. For the same compound, the TGI came out at 35.1 µM in assay [7], 21.8 µM in assay [9] and 28.5 µM in [10].

With `Fc1ccc(-c2nn3c(-c4cc(C(F)(F)F)cc(C(F)(F)F)c4)nnc3s2)cc1`, the GI50 in assay [1] was 1570 nM; in assay [3] it was 1380 nM; in assay [4], 1620 nM; in assay [5], 886 nM; in [6], 1220 nM; in assay [7], 1720 nM. In addition, the figures for the GI50 in assay [8], in assay [9] and in assay [10] were 1160 nM, greater than 50000 nM and 2510 nM, respectively. Moreover, the TGI in assay [1] was greater than 50 µM; in assay [3] it was 3.9 µM; in assay [4] it was greater than 50 µM; in [5], 2.36 µM; in [6], 3.93 µM; in [7], greater than 50 µM. The TGI in assay [8] was 2.42 µM; in assay [9] it was greater than 50 µM; in assay [10], greater than 50 µM.

For the compound `N#CC(Nc1cccc(C(F)(F)F)c1)c1ccccc1C(F)(F)F` (stereo unspecified), the TGI in assay [1] is 31.9 µM; in [2], 29.3 µM; in assay [3] it was 31.4 µM; in [4] it was 29.9 µM; in assay [5] it was 32.2 µM; in assay [7], 22.2 µM. In addition, the results for the TGI in assay [8], in assay [9] and in assay [10] were 16.3 µM, 11 µM and 17.9 µM, respectively.

Turning to `O=C(Nc1c(C(=O)NC2CCCCC2)[nH]c(=O)[nH]c1=O)c1ccc(Cl)cc1`, the TGI in assay [2] was greater than 100 µM; in [3], greater than 100 µM; in [4], greater than 100 µM; in assay [5], 85.1 µM; in [6] it was greater than 100 µM; in assay [7], greater than 100 µM. Also, the TGI in assay [8], in assay [9] and in assay [10] was greater than 100 µM in each case.

Source of the values: PubChem BioAssay (NCI).
